{
  "source": "patent US20200282019A1",
  "about": "“METHODS OF TREATING NEURODEGENERATIVE DISEASES” (priority 2017, published 2020)",
  "key": {"[1]": {"system": "cultured neurons", "experiment": "Neurite integrity / Aβ-induced synaptic degeneration in cultured neurons", "assay_type": "cell-based", "conditions": "PACAP with Aβ42", "procedure": "(§1) FIG. 12 depicts, in accordance with embodiments herein, the impact of PACAP's administration on synapses. […] Cultured neurons were treated with either nothing (top left), Aβ42 (top middle) or PACAP with Aβ42 (top right). Bottom panel: PACAP enhances synaptic transmissions (EPSCs frequency and amplitude) in cultured neuronal network.\n(§2) Furthermore, PACAP increased the frequency and amplitude of Excitatory Postsynaptic Currents (EPSCs) in cultured neurons without Aβ in the media (FIG. 12 bottom panel). The average EPSCs was 21±5 pA in control (n=7 cells), which was increased to 31±3 pA (n=9 cells) if the cultured neurons were pretreated with PACAP (20 nM) for 72 hours before Patch Clamp recording (p<0.05, one way ANOVA with posthoc Tukey test). PACAP6-38, the truncated non-active version mixed with PACAP38 blocked the effect of PACAP, resulting in an average EPSCs of 24±3 pA (n=6)."}, "[2]": {"system": "phosphorylated Tau protein at the site of 422", "experiment": "Aβ42-induced Tau phosphorylation at site 422, In-Cell Western in cultured primary neurons", "assay_type": "cell-based", "procedure": "The cells were fixed in 96 wells plate for In-Cell Western assay. The inventors used an antibody specific to phosphorylated Tau protein at the site of 422 and Tau5 antibody for total Tau quantification. pTau/total Tau ratio was calculated and compared. […] Okadaic acid (OA) is a potent phosphatase inhibitor to test maximal pTau capacity.\nBecause Tau hyperphosphorylation is contingent upon Aβ, this in vitro model best epitomizes AD pathogenesis and can differentiate AD from other tauopathy (FTLD, PDD, etc). […] Meanwhile, PACAP38 (lane 4) reduced Aβ-induced Tau phosphorylation and the phosphorylated Tau to actin ratio was 0.5. […] In addition to the phosphorylation site at Thr231 of Tau, the inventors tested pTau 422 using an in-cell Western approach on cultured cells (FIG. 11). PACAP (50 nM) reduces pTau422 by 40%."}, "[3]": {"system": "BACE1", "experiment": "BACE1 expression after PACAP treatment", "assay_type": "cell-based, APP-transgenic mice", "excerpt": "PACAP38 is the full length active peptide.\n(§3) As the amyloid accumulation in AD was contributed by amyloid precursor protein (APP) cleaved by overactive β-secretase (BACE1) and subsequently by γ-secretase, the desirable therapeutic goal is to inhibit BACE1 and/or γ-secretase, while enhancing α-secretase. The inventors used APP-transgenic mice pups to establish cortical neuronal culture with the method that the inventors previously published (Han et al 2014, Neurobiology of Aging). At 14 days, the inventors added PACAP and treated for 72 hours. Then the cells were harvest for BACE1, ADAMS, or other ELISA-based Assays."}, "[4]": {"system": "APP transgenic mice and wild-type littermates", "experiment": "Novel Objects Recognition (NOR) test after intranasal PACAP", "assay_type": "in vivo", "conditions": "PACAP-treated WT mice", "procedure": "(§4) The inventors gave intranasal PACAP treatment to a group of APP transgenic mice and their wild-type littermates. Starting from the age of 6 months, these groups of mice were given bilateral nostril injection of PACAP (0.1 μg/μl, 3 μl per nostril) three times per week for eight continuous weeks. The injection procedure was described by Nonako et al 2012. At the age of 9 months, the inventors sacrificed the mice and examined amyloid plaques in the hippocampal regions using thioflavin-S staining and photographed under fluorescent microscope. These thioflavin-S positive dense core plaques are associated with deleterious effects whereas thioflavin-S negative diffusive amyloid plaques are non-detrimental and often associated with cognitive normal elderly individuals (Serrano-Pozo et al., 2011).\nNext, the inventors performed the Novel Objects Recognition (NOR) test. Briefly, the mice were acclimatized to a square chamber, then two identical objects were placed in the chamber on the second day. On the third day, one of the objects was replaced with a novel object. It is a natural behavior to take more time to explore the new object. The discriminating capacity on the new object vs the old object was calculated as discrimination index (DI) as follows:\nIn APP mice, DI change was −110% (n=4), indicating deterioration on cognitive function from 6-9 month (without PACAP treatment). […]"}, "[5]": {"system": "APP transgenic mice", "experiment": "Thioflavin-S dense core amyloid plaques in hippocampal region after intranasal PACAP", "assay_type": "in vivo", "procedure": "FIG. 13 depicts, in accordance with embodiments herein, the impact of PACAP's administration on plaques in APP transgenic mice in that PACAP reduces dense core amyloid plaque size. A: a typical amyloid plaque in the hippocampal region of an untreated APP transgenic mouse at 9 month age. Bar=20 μM. B: an amyloid plaque in the hippocampal region from an APP transgenic mouse (9 month) after intranasal PACAP treatment. Bar=20 μM.\nas §4"}, "[6]": {"system": "hTau transgenic mice", "experiment": "Morris Water Maze in hTau transgenic mice after intranasal PACAP", "assay_type": "in vivo", "conditions": "hTau mice at 10 months, intranasal PACAP 0.1 μg/μl, 3 μl per nostril, 3 times a week, 8 weeks", "procedure": "The inventors gave intranasal PACAP treatment for a group of hTau transgenic mice and their WT littermates. Starting from the age of 6 months, these groups of mice were given bilateral nostril injection of PACAP (0.1 μg/μl, 3 μl per nostril) 3 times a week for a continuous 8 weeks. Human Tau mice are appropriate model to test Tau phosphorylation and its pathological consequence. In this strain (B6.Cg-Mapttml(EGFP)Klt Tg(MAPT)8cPdav/J, Jackson lab), the intrinsic mice tau was disrupted by inserting eGFP sequence to the first exon of mice tau, but all 6 isoforms of human Tau (both 3R and 4R) were knocked in. The hTau mice show age dependent accumulation of hyperphosphorylated and aggregated tau in cortex and hippocampus, neuronal loss, and cognitive decline. The inventors tested the mice in Morris Water Maze, which is a behavior test approach to examine the spatial recognition and memory function of mice. […] Taken together, PACAP nasal injection decreases AD pathology and improves cognitive performance in two animal models of AD."}, "[7]": {"system": "phosphorylated Tau protein at the site of pThr231", "experiment": "Aβ42-induced Tau phosphorylation at Thr231, Western blot in cultured primary neurons", "assay_type": "cell-based", "text": "The cells were harvested and homogenized for Western blot assay. The inventors used an antibody specific to phosphorylated Tau protein at the site of pThr231 (Pierce-antibody OPA1-03156)."}, "[8]": {"system": "APP transgenic mice", "experiment": "Morris Water Maze (MWM) in APP mice after intranasal PACAP", "assay_type": "in vivo", "conditions": "APP mice at 10 months", "procedure": "(A) APP mice were either treated with intranasal PACAP (n=4) or treated with intranasal saline (n=4). (B) WT mice were either treated with intranasal PACAP (n=3) or saline (n=3).\nas §4\nIn APP mice, DI change was −110% (n=4), indicating deterioration on cognitive function from 6-9 month (without PACAP treatment). PACAP treatment slows the declining rate as the DI change was −40% in PACAP-treated APP mice group (n=4). Furthermore, the inventors tested the mice in the Morris Water Maze (MWM), which is a behavior test used to examine the spatial recognition and memory function of mice. […]"}, "[9]": {"system": "BACE1", "experiment": "BACE1 FRET activity assay (Michaelis-Menten) on PACAP-treated cortical neuronal culture", "assay_type": "cell-based, APP-transgenic mice", "conditions": "PACAP treatment", "procedure": "FIG. 7 depicts, in accordance with embodiments herein, that PACAP inhibits BACE1 activity. Left panel: BACE1 activity kinetic was measured and fitted with Michaelis-Menten Model. […] Right panel: steady state endpoint fluorescent units (RFU). Note PACAP reduces the end product by BACE1.\nas §3\nThe inventors measured BACE1 activity using a BACE1 FRET assay kit (Panvera, Life technologies) with a customized protocol. The artificial substrate of BACE1 is a short peptide with a rhodamine-derived fluorescent donor coupled to a quenching acceptor (Rh-[…]-Quencher). Upon cleavage by BACE1, the rhodamine donor is released from quencher and emitted fluorescence detected under a wavelength of Ex/Em=545/585 nm. […]"}, "[10]": {"system": "cultured neurons", "experiment": "Excitatory Postsynaptic Currents (EPSCs), Patch Clamp recording in cultured neurons", "assay_type": "cell-based", "conditions": "for average EPSCs: control 21±5 pA", "procedure": "as §1, §2"}, "[11]": {"system": "primary cortical neuron cultures", "experiment": "Aβ-induced toxicity, MTT cell survival in primary cortical neuron cultures", "assay_type": "cell-based, mice", "conditions": "for cell survival (MTT, control cells normalized to 100%): overnight", "experimental": "The inventors applied three different doses of Aβ overnight to primary cortical neuron cultures obtained from neonatal mice and examined cell survival using the MTT chemiluminescent assay (FIG. 6). The MTT value of control cells (no Aβ added) was normalized to 100% and all other MTT values of cells incubated with Aβ were presented as a percentage of survival."}},
  "note": "“Also recorded” adds a separate entry of the source.",
  "data": [
    {"substance": "Pituitary Adenylate Cyclase Activating Polypeptide [PACAP]", "values": [
      {"measurement": "neurite integrity / Aβ-induced synaptic degeneration", "setting": "[1]", "value": "protects Aβ-induced synaptic degeneration; also recorded: protects Aβ induced synaptic degeneration; also recorded: protects neurite integrity"},
      {"measurement": "reduction of pTau422", "setting": "[2]; PACAP 50 nM, Aβ42 (0.25 μM) treated cells", "value": 40, "unit": "%"},
      {"measurement": "pTau/total Tau ratio", "setting": "[2]; PACAP by itself, without Aβ42", "value": "did not change Tau phosphorylation"},
      {"measurement": "reduction of pTau422", "setting": "[2]; low dose PACAP 10 nM, Aβ42 treated cells", "value": "marginal effect"},
      {"measurement": "BACE1 expression", "setting": "[3]; PACAP38 full length peptide", "value": "reduces BACE1 expression"},
      {"measurement": "discrimination index (DI) change", "setting": "[4]", "value": "positively changed"},
      {"measurement": "dense core amyloid plaque size (average core diameter)", "setting": "[5]; intranasal PACAP 0.1 μg/μl, 3 μl per nostril, three times per week, eight weeks from 6 months, examined at 9 months", "value": "smaller size; also recorded: significantly reduced"},
      {"measurement": "number of amyloid plaques", "setting": "[5]; intranasal PACAP, APP transgenic mice, 9 month", "value": "did not significant change"},
      {"measurement": "MWM performance", "setting": "[6]", "value": "prevented the deterioration"},
      {"measurement": "phosphorylated Tau (pTau231) to actin ratio", "setting": "[7]; PACAP38 (50 nM) added 24 hours after Aβ42 (0.5 μM), 48 hours, lane 4, non-treated 0.25", "value": 0.5},
      {"measurement": "MWM performance", "setting": "[8]", "value": "prevents the deterioration"},
      {"measurement": "steady state endpoint fluorescent units (RFU), end product by BACE1", "setting": "[9]", "value": "reduces"},
      {"measurement": "frequency and amplitude of EPSCs", "setting": "[10]; cultured neurons without Aβ in the media", "value": "increased; also recorded: enhances"},
      {"measurement": "average EPSCs", "setting": "[10]; pretreated with PACAP (20 nM) 72 hours, no Aβ", "value": "31±3", "unit": "pA"},
      {"measurement": "PACAP concentration that effectively protects against Aβ42 toxicity", "setting": "[11]; Aβ42 1 μM, cultured mouse cortical neurons", "value": "≥ 50", "unit": "nM"},
      {"measurement": "cell survival (MTT, control cells normalized to 100%)", "setting": "[11]; PACAP 50 nM added at the same time as 1 μM Aβ", "value": "79±5", "unit": "%"},
      {"measurement": "cell survival (MTT, control cells normalized to 100%)", "setting": "[11]; PACAP 100 nM added at the same time as 1 μM Aβ", "value": "87±4", "unit": "%"}
    ]},
    {"substance": "PACAP6-38 [reference compound]", "values": [
      {"measurement": "effect of PAC1 receptor blocker on BACE1 reduction by PACAP", "setting": "[3]; PACAP6-38 with PACAP", "value": "antagonized the BACE1 reduction effect of PACAP"},
      {"measurement": "effect on PACAP reduction of pTau231", "setting": "[7]; PACAP6-38 (2 μM) with PACAP38 (50 nM) and Aβ42, lane 3", "value": "offsetting the effect of PACAP"},
      {"measurement": "effect on PACAP enhancement of synaptic transmissions", "setting": "[10]; PAC1 receptor antagonist with PACAP", "value": "blocks the enhancement"},
      {"measurement": "average EPSCs", "setting": "[10]; PACAP6-38 mixed with PACAP38", "value": "24±3", "unit": "pA"}
    ]}
  ]
}
